Measurements: patent US7049334B2, “Enhancement of learning and memory and treatment of amnesia” (priority 2001, dated 2006)
Where “and” joins values, the source holds several entries; their conditions need not be identical. Equal entries are not always repeated.

Test system: rats (passive avoidance learning)
Experiment: One-trial step-through passive inhibitory avoidance task
Assay type: in vivo
Text: Passive Avoidance and active avoidance task: Rats were trained and tested on a one-trial step-through passive inhibitory avoidance task with a procedure as described in Liang et al. (1998, Chin. J. Physiol. 41: 33–44). Briefly, an apparatus was a trough-shape alley divided by a sliding door into a well-lit safe compartment and a dark shock compartment. A rat was placed in the lit side facing away from the door. As the rat turned around, the door was opened. After the rat stepped into the dark compartment, it received an inescapable footshock via a constant current shocker controlled by a timer (Lafayette Instruments, Model 80240 and Model 58010, Indiana, USA). After administration of the foot-shock, the rat was removed from the alley and returned to its home cage. In a retention test given 24 hrs or 10 days later, the rat was reintroduced into the alley and the latency of stepping into the shock compartment with all four feet was taken as a retention score.
The amygdala is also implicated in learning and memory. Studies have shown that this brain structure is particularly involved in processing affective information. See, e.g., Cahill and McGaugh (1990) Behav. Neurosci. 104: 532–543; and Gilbert et al. (1991) Behav. Neurosci. 105: 533–561. It has been reported that nitric oxide is also involved in activity-dependent synaptic plasticity and passive avoidance learning in amygdaloid nucleus. See, e.g., Bernabeu et al. (1995) NeuroReport 6: 1498–1500; Watanabe et al. (1995) Brain Res. 688: 233–236; and Teledgy and Kokavszky (1997) Neuropharmacology 36: 1583–1587. The effect of Compound 1 on passive avoidance learning was studied. Compound 1 was injected (i.p., 1 mg/kg) 10 min before foot-shock training. […] The memory lasts for several days. The retention scores were very high even if tested on day 10. There were much more rats which had retention latencies longer than 5 min in Compound 1-treated rats (2 out of 15 in a control group and 11 out of 12 in a Compound 1-treated group, respectively) tested on both day-1 and day-10. When the Compound 1 was mixed with 1.25% CMC and delivered to stomach directly (10 mg/kg) before foot-shock. The retention test was performed 1 day and 10 days later, respectively. […] Rats of 1-year-old were chosen for this experiment. Compound 1 (1 mg/kg) was i.p. injected 10 min before foot-shock. The retention test was performed 1 day and 10 days later, respectively.

[1] = aged rats (1-year-old), i.p. 1 mg/kg 10 min before foot-shock
[2] = aged rats (1-year-old), i.p. 1 mg/kg 10 min before foot-shock, 1 mg/kg
[3] = oral 10 mg/kg in 1.25% CMC before foot-shock
[4] = oral 10 mg/kg in 1.25% CMC before foot-shock, ceiling 300 s or 600 s, 10 mg/kg

SMILES: OCc1ccc(-c2nn(Cc3ccccc3)c3ccccc23)o1 [Compound 1, 1-benzyl-3-(5′-hydroxymethyl-2′-furyl)-indazole]
- enhancement effect induced by Compound 1, with KT5823 (KT5823 i.c.v. 0.2 nmole): significantly antagonized
- enhancement effect induced by Compound 1, with L-NAME (L-NAME i.c.v. 1 mmole): significantly antagonized
- retention scores when given before context training (administered 10 min before the context training instead of the foot-shock): prolonged the retention scores
- Retention Scores Day-1, mean ± std [1]: mean ± std 233.0 ± 47.3 sec
- Retention Scores Day-10, mean ± std [1]: 181.4 ± 55.7 s
- Retention Scores Day-1, individual rats [2]: >300 sec (3×) and 207.1 sec and 58.1 sec
- Retention Scores Day-10, individual rats [2]: 252.2 s and 255.9 s and 85.8 s and >300 s and 12.9 s
- retention latencies in the lighted compartment (i.p. 1 mg/kg 10 min before foot-shock training): markedly prolonged
- rats with retention latencies longer than 5 min (i.p. 1 mg/kg, tested on both day-1 and day-10): 11 out of 12
- effect on avoidance behavior when injected after foot-shock (injected 30 min after foot-shock): did not exert any effect
- Retention Scores Day-1, mean ± std [3]: mean ± std 369.2 ± 70.2 sec
- Retention Scores Day-10, mean ± std [3]: 437.3 ± 62.4 s
- Retention Scores Day-1, individual rats [4]: >600 sec (4×) and 15.0 sec and >300 sec (4×) and 77.1 sec
- Retention Scores Day-10, individual rats [4]: 454.0 sec and >600 sec (4×) and 15.0 sec and 207.1 sec and 453.2 sec and 343.2 sec and 500.2 sec
